Experimental data published in patent publication US20240384350A1, “METHODS OF TREATING CANCER WITH KINASE INHIBITORS” (BOARD OF REGENTS, THE UNIVERSITY OF TEXAS SYSTEM, priority 2021, published 2024).

Tests used:
Assay in all cases: Ba/F3 drug screening, Cell Titer Glo, IC50 Mut/WT
Assay type in all cases: cell-based
EGFR L858R S784F = biological target: T1, EGFR L858R S784F (Homo sapiens, UniProt P00533, L858R/S784F); conditions: Classical-Like, 72 hours
T1 construct: expressed in transfected cells; host or cells: Ba/F3 cells, retroviral pBabe-Puro vector (vector made by GeneScript from EGFR L858R)

EGFR Ex19del = biological target: T2, EGFR Ex19del (Homo sapiens, UniProt P00533, DEL746-750); conditions: Classical-Like, 72 hours
T2 construct: expressed in transfected cells; host or cells: Ba/F3 cells, retroviral pBabe-Puro vector

EGFR L833F = biological target: T3, EGFR L833F (Homo sapiens, UniProt P00533, L833F); conditions: Classical-Like, 72 hours
T3 construct: expressed in transfected cells; host or cells: Ba/F3 cells, retroviral pBabe-Puro vector

EGFR L858R/T790M = biological target: T4, EGFR L858R/T790M (Homo sapiens, UniProt P00533, L858R/T790M); conditions: T790M-like-3S, 72 hours
T4 construct: expressed in transfected cells; host or cells: Ba/F3

EGFR G719A T790M = biological target: T5, EGFR G719A T790M (Homo sapiens, UniProt P00533, G719A/T790M); conditions: T790M-like-3S, 72 hours
T5 construct: expressed in transfected cells; host or cells: Ba/F3

EGFR Ex19del G796S = biological target: T6, EGFR Ex19del G796S (Homo sapiens, UniProt P00533, DEL746-750/G796S); conditions: Ba/F3 cells, EGFR Ex19del G796S (PACC), Mut/WT
T6 construct: expressed in transfected cells; host or cells: Ba/F3

EGFR L858R/T790M/C797S = biological target: T7, EGFR L858R/T790M/C797S (Homo sapiens, UniProt P00533, C797S/L858R/T790M); conditions: T790M-like-3R, 72 hours
T7 construct: expressed in transfected cells; host or cells: Ba/F3

EGFR S768dupSVD V769M = biological target: T8, EGFR S768dupSVD V769M (Homo sapiens, UniProt P00533, INS768MDS/V769M); conditions: Ex20, 72 hours
T8 construct: expressed in transfected cells; host or cells: Ba/F3 cells, retroviral pBabe-Puro vector (vector made by GeneScript from EGFR S768dupSVD, c.2305G > A)

EGFR I740dupIPVAK = conditions: Ba/F3 cells, EGFR I740dupIPVAK (PACC), Mut/WT
EGFR L858R L718Q = biological target: T9, EGFR L858R L718Q (Homo sapiens, UniProt P00533, L718Q/L858R); conditions: Ba/F3 cells, EGFR L858R L718Q (PACC), Mut/WT
T9 construct: host or cells: Ba/F3

EGFR E709_T710del insD = biological target: T10, EGFR E709_T710del insD (Homo sapiens, UniProt P00533, DEL709-709/T710D); conditions: Ba/F3 cells, EGFR E709_T710del insD (PACC), Mut/WT
T10 construct: expressed in transfected cells; host or cells: Ba/F3

EGFR L858R T790M L718V = biological target: T11, EGFR L858R T790M L718V (Homo sapiens, UniProt P00533, L718V/L858R/T790M); conditions: T790M-like-3R, 72 hours
T11 construct: expressed in transfected cells; host or cells: Ba/F3

EGFR G719A L861Q = biological target: T12, EGFR G719A L861Q (Homo sapiens, UniProt P00533, G719A/L861Q); conditions: Ba/F3 cells, EGFR G719A L861Q (PACC), Mut/WT
T12 construct: expressed in transfected cells; host or cells: Ba/F3

EGFR Ex19del T790M C797S = biological target: T13, EGFR Ex19del T790M C797S (Homo sapiens, UniProt P00533, C797S/DEL746-750/T790M); conditions: T790M-like-3R, 72 hours
T13 construct: expressed in transfected cells; host or cells: Ba/F3

EGFR S768I V774M = biological target: T14, EGFR S768I V774M (Homo sapiens, UniProt P00533, S768I/V774M); conditions: Ba/F3 cells, EGFR S768I V774M (PACC), Mut/WT
T14 construct: host or cells: Ba/F3

EGFR T725M = biological target: T15, EGFR T725M (Homo sapiens, UniProt P00533, T725M); conditions: Classical-Like, 72 hours
T15 construct: expressed in transfected cells; host or cells: Ba/F3 cells, retroviral pBabe-Puro vector (vector made by GeneScript from EGFR WT)

EGFR L718Q T790M = biological target: T16, EGFR L718Q T790M (Homo sapiens, UniProt P00533, L718Q/T790M); conditions: T790M-like-3R, 72 hours
T16 construct: expressed in transfected cells; host or cells: Ba/F3

EGFR Ex19del G724S = biological target: T17, EGFR Ex19del G724S (Homo sapiens, UniProt P00533, DEL746-750/G724S); conditions: Ba/F3 cells, EGFR Ex19del G724S (PACC), Mut/WT
T17 construct: expressed in transfected cells; host or cells: Ba/F3

EGFR Ex19del T790M = biological target: T18, EGFR Ex19del T790M (Homo sapiens, UniProt P00533, DEL746-750/T790M); conditions: T790M-like-3S, 72 hours
T18 construct: expressed in transfected cells; host or cells: Ba/F3

EGFR L718Q = biological target: T19, EGFR L718Q (Homo sapiens, UniProt P00533, L718Q); conditions: Ba/F3 cells, EGFR L718Q (PACC), Mut/WT
T19 construct: expressed in transfected cells; host or cells: Ba/F3

EGFR R776H = biological target: T20, EGFR R776H (Homo sapiens, UniProt P00533, R776H); conditions: Ba/F3 cells, EGFR R776H (PACC), Mut/WT
T20 construct: host or cells: Ba/F3

EGFR Ex19del T790M L718V = biological target: T21, EGFR Ex19del T790M L718V (Homo sapiens, UniProt P00533, DEL746-750/L718V/T790M); conditions: T790M-like-3S, 72 hours
T21 construct: expressed in transfected cells; host or cells: Ba/F3

EGFR L861R = biological target: T22, EGFR L861R (Homo sapiens, UniProt P00533, L861R); conditions: Classical-Like, 72 hours
T22 construct: expressed in transfected cells; host or cells: Ba/F3 cells, retroviral pBabe-Puro vector (vector made by GeneScript from EGFR WT)

EGFR A763insFQEA = biological target: T23, EGFR A763insFQEA (Homo sapiens, UniProt P00533, INS763FQEA); conditions: Classical-Like, 72 hours
T23 construct: expressed in transfected cells; host or cells: Ba/F3 cells, retroviral pBabe-Puro vector

EGFR L858R = biological target: T24, EGFR L858R (Homo sapiens, UniProt P00533, L858R); conditions: Classical-Like, 72 hours
T24 construct: expressed in transfected cells; host or cells: Ba/F3 cells, retroviral pBabe-Puro vector

EGFR R776C = biological target: T25, EGFR R776C (Homo sapiens, UniProt P00533, R776C); conditions: Ba/F3 cells, EGFR R776C (PACC), Mut/WT
T25 construct: host or cells: Ba/F3

With `C=CC(=O)N1CC[C@@H](Oc2nc(Nc3ccc(N4CCC(N5CCN(C)CC5)CC4)cc3)c(C(N)=O)nc2CC)C1` [Naquotinib] the “ratio of IC50 for cells with mutant EGFR to IC50 for cells with wildtype EGFR (Mut/WT)” value (shortened to “ratio of IC50 for cells with mutant EGFR”) (EGFR L858R S784F) was 0.1921, the “ratio of IC50 for cells with mutant EGFR” value (EGFR Ex19del) was 0.006035 and the “ratio of IC50 for cells with mutant EGFR” value (EGFR L833F) was 0.03054. For the same compound, the “ratio of IC50 for cells with mutant EGFR” value (EGFR L858R/T790M) was 0.01398, the “ratio of IC50 for cells with mutant EGFR” value (EGFR G719A T790M) was 0.08702 and the “ratio of the IC50 value for cells with a PACC EGFR mutation to the IC50 value for cells with wildtype EGFR” value (shortened to “ratio of the IC50 value for cells”) (EGFR Ex19del G796S) was 1.137. For the same compound, the “ratio of IC50 for cells with mutant EGFR” value (EGFR L858R/T790M/C797S) was 32.29, the “ratio of IC50 for cells with mutant EGFR” value (EGFR S768dupSVD V769M) was 1.96 and the “ratio of the IC50 value for cells” value (EGFR I740dupIPVAK) was 0.5025. The “ratio of the IC50 value for cells” value (EGFR L858R L718Q) was 5.547, the “ratio of the IC50 value for cells” value (EGFR E709_T710del insD) was 0.497 and the “ratio of IC50 for cells with mutant EGFR” value (EGFR L858R T790M L718V) was 0.6413. For the same compound, the “ratio of the IC50 value for cells” value (EGFR G719A L861Q) was 0.03136, the “ratio of IC50 for cells with mutant EGFR” value (EGFR Ex19del T790M C797S) was 14.64 and the “ratio of the IC50 value for cells” value (EGFR S768I V774M) was 0.4917. The “ratio of IC50 for cells with mutant EGFR” value (EGFR T725M) was 0.5761, the “ratio of IC50 for cells with mutant EGFR” value (EGFR L718Q T790M) was 1.576 and the “ratio of the IC50 value for cells” value (EGFR Ex19del G724S) was 0.8866. For the same compound, the “ratio of IC50 for cells with mutant EGFR” value (EGFR Ex19del T790M) was 0.009604, the “ratio of the IC50 value for cells” value (EGFR L718Q) was 5.448 and the “ratio of the IC50 value for cells” value (EGFR R776H) was 0.5095. The “ratio of IC50 for cells with mutant EGFR” value (EGFR Ex19del T790M L718V) was 0.02994, the “ratio of IC50 for cells with mutant EGFR” value (EGFR L861R) was 0.09054 and the “ratio of IC50 for cells with mutant EGFR” value (EGFR A763insFQEA) was 0.1912. The “ratio of IC50 for cells with mutant EGFR” value (EGFR L858R) was 0.07863 and the “ratio of the IC50 value for cells” value (EGFR R776C) was 4.27.
